Measured values from PMC10611510, “Teicoplanin associated gene tcaA inactivation increases persister cell formation in Staphylococcus aureus” (Frontiers in Microbiology, 2023).
≈ marks a conversion by molar mass, not a printed value. Entries after “also recorded” stand apart in the source; their conditions may differ. Where two headings read alike, the source gives them in different places.

How the values were obtained:
[1] = system: S. aureus WT; experiment: microbe, parasite or virus in culture; format: cell-based, Staphylococcus aureus
[2] = system: ΔtcaA; experiment: MIC, two-fold broth microdilution (CLSI); format: cell-based; conditions: Staphylococcus aureus
[3] = system: ΔtcaA; experiment: Antibiotic susceptibility testing (inhibition zones); format: cell-based, Staphylococcus aureus; conditions: 100 fold MIC, 2 × 10^9 CFU/mL, 37°C, inhibition zones after 24–36 h; Supplementary Figure S1
[4] = system: ΔtcaA; experiment: Fluorescence microscopy of persister cell resuscitation (GFP); conditions: 20-fold MIC for 48 h, washed, fresh TSB 2 h at 37°C; ΔtcaA compared to WT
Protocol: Fluorescence microscopy was used to observe the persister cell resuscitation ability of the whole population. […] The cells were harvested, washed with ddH2O, and resuspended in TSB media. The cells were grown for 2 h at 37°C and the S. aureus WT and ΔtcaA were observed under the fluorescence microscope.

[5] = system: penicillin binding protein-2 (pbp2) ectopic expression; conditions: ref Sieradzki et al., 1998, cited from earlier work; for MIC after the increase: end value of the increase associated with pbp2 ectopic expression; for MIC before the increase: start value of the increase associated with pbp2 ectopic expression
Text: Staphylococcus aureus has two major types of resistant strains, namely, methicillin-resistant S. aureus (MRSA) and vancomycin-resistant S. aureus (VRSA). MRSA is considered the major cause of hospital and community-acquired infections ([Aqib and Rodriguez-Morales, 2021]) and is largely treated with glycopeptides. However, the emergence of teicoplanin resistance, vancomycin-intermediate S. aureus (VISA), and VRSA has made the clinical treatment unsuccessful and increased death rates across the world ([Howden et al., 2010]). S. aureus resistant to glycopeptides are a serious threat to public hea ...

[6] = system: ΔtcaA
Protocol: (§2) A persistence assay was adopted from our previous protocol ([Habib et al., 2020]). The cells were grown to OD600 = 0.40 in the TSB medium. The pSD1 containing dCas9-tcaA and dCas9-tcaB were induced with ATC 100 ng/mL for 1 h, the medium was removed, and fresh TSB and antibiotic were added whereas ΔtcaA cells were challenged with antibiotic at OD600 = 0.40. After 12 h, a 200 μL sample was taken and CFU counting was performed. Each antibiotic concentration was 10 fold of MIC, and S. aureus WT and S. aureus WT-dCas9 were used as controls.

[7] = system: dCas9-tcaB; experiment: Persister assay; conditions: dCas9-tcaB vs WT-dCas9 and WT; 10-fold MIC
Protocol: as §2

[8] = system: dCas9-tcaA; experiment: Persister assay; conditions: dCas9-tcaA vs WT-dCas9, 10-fold MIC, CFU counting; for Surviving fraction of cells (persisters), fold relative to control: after 12 h, triplicates; for Increase in persister cells, fold relative to control: after 48 h
Protocol: as §2

[9] = system: S. aureus WT; experiment: Growth curve analysis; format: cell-based, Staphylococcus aureus; conditions: OD600, 37°C
Protocol: (§1) The overnight culture was 100 times diluted in TSB medium and a 200 μL was inoculated into a 96-well microtiter plate. The plates were incubated at 37°C with shaking at 200 rpm. At different time intervals (1–18 and 24 h), OD600 was measured using a microplate reader (Thermo Fisher, Waltham, MA, USA).

[10] = system: C-ΔtcaA; experiment: Growth curve analysis; format: cell-based, Staphylococcus aureus; conditions: OD600, 37°C
Protocol: as §1

[11] = system: MRSA MW2; experiment: Growth curve analysis; format: cell-based, Staphylococcus aureus; conditions: OD600, 37°C
Protocol: as §1

[12] = system: ΔtcaA; experiment: Growth curve analysis; format: cell-based, Staphylococcus aureus; conditions: OD600, 37°C
Protocol: as §1

[13] = system: resistant isolates; conditions: ref Wang Y. et al., 2017; cited from earlier work
Text: Glycopeptide resistance in MRSA is a global problem and vancomycin- and teicoplanin-resistant strains are of major clinical relevance. Several studies have reported the emergence of teicoplanin and vancomycin resistance in S. aureus ([Wang Y. et al., 2017]; [Szymanek-Majchrzak et al., 2018]; [Wu et al., 2021]). Typically, teicoplanin and vancomycin bind to D-alanine-D-alanine subunits of the murein monomer and cross resistance could develop between teicoplanin and vancomycin ([Bakthavatchalam et al., 2019]). The cell wall thickness also contributed to the development of vancomycin and teicopla ...

[14] = system: ΔtcaA; experiment: Persister assay
Protocol: as §2

[15] = C-ΔtcaA complementary strain, 1 mg/L
[16] = ΔtcaA complementary strain, 2 mg/L

Molecule | Susceptibility of the isolate (in words) [1] | MIC ([1]; Staphylococcus aureus) [µg/mL] | MIC [2] [µg/mL] | Susceptibility of ΔtcaA (in words) [3] | GFP-expressing cells after antibiotic removal (resuscitation) [4] | MIC after the increase [5] [µg/mL] | MIC before the increase [5] [µg/mL] | Persister cell formation relative to controls (in words) [7] | Surviving fraction of cells (persisters), fold relative to control [8] [fold] | Increase in persister cells, fold relative to control [8] [fold] | Growth in TSB with antibiotic (in words) ([9]; 1 mg/L) | Growth in TSB with antibiotic (in words) ([9]; 2 mg/L) | Growth in TSB with antibiotic (in words) [10, 15] | Growth in TSB with antibiotic (in words) [10, 16] | Growth in TSB with antibiotic (in words) ([11]; 1 mg/L) | Growth in TSB with antibiotic (in words) ([11]; 2 mg/L) | Growth in TSB with antibiotic (in words) ([12]; 1 mg/L) | Growth in TSB with antibiotic (in words) ([12]; 2 mg/L) | MIC [13] [µg/mL] | other results
CC[C@H]1OC(=O)[C@H](C)[C@@H](O[C@H]2C[C@@](C)(OC)[C@@H](O)[C@H](C)O2)[C@H](C)[C@@H](O[C@@H]2O[C@H](C)C[C@H](N(C)C)[C@H]2O)[C@](C)(O)C[C@@H](C)CN(C)[C@H](C)[C@@H](O)[C@]1(C)O [Azithromycin] | sensitive | ≤ 8 | ≤ 8 | did not affect | – | – | – | – | – | – | – | – | – | – | – | – | – | – | – | –
COc1cccc(OC)c1C(=O)N[C@@H]1C(=O)N2[C@@H]1SC(C)(C)[C@@H]2C(=O)O [Methicillin] | resistant | > 512 | ≥ 256 | – | – | – | – | – | – | – | – | – | – | – | – | – | – | – | – | –
CN[C@H](CC(C)C)C(=O)N[C@H]1C(=O)N[C@@H](CC(N)=O)C(=O)N[C@H]2C(=O)N[C@H]3C(=O)N[C@H](C(=O)N[C@H](C(=O)O)c4cc(O)cc(O)c4-c4cc3ccc4O)[C@H](O)c3ccc(c(Cl)c3)Oc3cc2cc(c3O[C@@H]2O[C@H](CO)[C@@H](O)[C@H](O)[C@H]2O[C@H]2C[C@](C)(N)[C@H](O)[C@H](C)O2)Oc2ccc(cc2Cl)[C@H]1O [Vancomycin] | resistant | 10 (≈ 6.9 µM) | – | resistance; also recorded: susceptibility was decreased | high number of cells expressing GFP in ΔtcaA cells compared to WT | 2 (≈ 1.38 µM) | 1 (≈ 0.69 µM) | did not induce persister cell formation | 15 | 10 | fast and steady growth | slow growth | fast and steady growth | slow growth | slow growth rates | did not show any growth | fast and steady growth | slow growth | 2 (≈ 1.38 µM) | Increase in persister cells, fold (tcaA persistence assay, summary) [6]: 10–11 fold; Increase in persister cells, fold relative to control [6]: 11 fold
Teicoplanin | resistant | – | – | resistance; also recorded: susceptibility was decreased | high number of cells expressing GFP in ΔtcaA cells compared to WT | 8 | 2 | did not induce persister cell formation | 17 | 13 | fast and steady growth | slow growth | fast and steady growth | slow growth | slow growth rates | did not show any growth | fast and steady growth | slow growth | 16 | MIC [1]: 16 µg/mL; Increase in persister cells, fold (tcaA persistence assay, summary) ([14]; summary over dCas9-tcaA and ΔtcaA, discussion): 13–14 fold; Surviving fraction of cells (persisters), fold relative to control ([14]; ΔtcaA vs WT, 10-fold MIC, after 12 h, CFU counting, triplicates): 18 fold; Increase in persister cells, fold relative to control ([14]; ΔtcaA vs WT, 10-fold MIC, after 48 h, CFU counting): 14 fold
